Assay: Plasma pharmacokinetics of immediate release and gastric resident dosage forms in pigs
Assay type: in vivo, Yorkshire pigs
Description: All animal experiments were approved by the Committee on Animal Care at the Massachusetts Institute of Technology. In vivo pharmacokinetics were evaluated in an unblinded fashion in female Yorkshire pigs (50–95 kg) that were randomly assigned to the immediate release or sustained release groups. Animals were fed daily in the morning and in the evening with a diet consisting of pellets (Laboratory mini-pig growler diet, 5081), with a midday snack consisting of various fruits and vegetables. Specifically, the pellets were 5/32” x ¼” length, and consisted of ground oats, alfalfa meal, wheat middlings, soybean meal, dried beet pulp, salts and other micronutrients.
To determine the oral pharmacokinetics of immediate release dosage forms of DTG and CAB, 50 mg of DTG and 30 mg of CAB were weighed and filled into gelatine capsules. For RPV pharmacokinetics, RPV base was dissolved in poly(ethylene glycol) (molecular weight—400 Da) containing 10-fold molar excess of citric acid. The concentration of RPV base in this solution was 5 mg/mL and 5 mL of the solution was dosed in a gelatine capsule. […] To determine oral pharmacokinetics from gastric retentive dosage forms, the arms of dosage forms (2–3/pig containing 350 mg DTG, 175 mg RPV or 210 mg CAB) were folded into capsule shells immediately prior to dosing. […]. The capsules containing drug or dosage form were delivered into the intestine or stomach respectively. At various time points, blood samples (0.5 mL) were collected from a central line connected to the external jugular vein or from a mammary vein into […] Vacutainer gold top tubes (Becton, Dickinson and Co. USA). Plasma samples were separated from blood by centrifugation (1800g, 10 min at 4 °C) and were stored at −80 °C. Atropine can reduce gastric acid production and gastric motility which may affect the overall drug pharmacokinetics and the gastric retention of the dosage form. […]. Drug concentrations in the plasma were analysed using UPLC-MS/MS. Plasma samples (100 µL) were spiked with 200 µL acetonitrile solution of 250 µg/mL maraviroc (internal standard) to cause precipitation. Samples were vortexed and sonicated for 10–20 min and then centrifuged (21130g, 10 min). Two hundred microliters of solution were pipetted into a 96-well plate containing 200 µL of nanopure water. Finally, 2.5 μL was injected onto the UPLC–ESI–MS system for analysis.
UPLC separation was carried out on a Waters® UPLC aligned with a Waters® Xevo–TQ-SMS mass spectrometer (Waters Ltd., UK). MassLynx® 4.1 software was used for data acquisition and analysis. Liquid chromatography separation was performed on an Acquity® UPLC CSH C18 (50 × 2.1 mm, 1.7 μm particle size) column at 50 °C. The mobile phase consisted of acetonitrile spiked with 0.1% formic acid and 10 mM ammonium formate solution. The mobile phase was flowed at a rate of 0.6 mL/min using a time and solvent gradient composition. The initial composition (100% aqueous) was held for 1 min, following which the composition was changed linearly to 20% organic phase over the next 0.25 min. The composition was then brought to 100% organic over 1.25 min, held for 0.5 min and finally shifted to the initial composition and held constant until the end of the run for column equilibration. The total run time was 4 min and sample injection volume was 2.5 μL. The mass spectrometer was operated in the multiple reaction monitoring (MRM) mode. Sample introduction and ionization was by electrospray ionization (ESI) in the positive ion mode. DTG, RPV and CAB were analysed at mass-to-charge ratios of […] respectively. Stock solutions of DTG, RPV, CAB, and an internal standard maraviroc were prepared in methanol at a concentration of 500 μg/mL. A ten-point calibration curve was prepared ranging from 2.5–5000 ng/mL. Quality control samples were prepared in a similar procedure using an independent stock solution at three concentrations (5, 50 and 500 ng/mL). […]

[1] = immediate release formulation, pigs

C[C@@H]1CCO[C@H]2Cn3cc(C(=O)NCc4ccc(F)cc4F)c(=O)c(O)c3C(=O)N12 [DTG, dolutegravir]
Tmax (female, Yorkshire, pig, plasma, oral, immediate release formulation, pigs, post-dose, read-out: time of maximum plasma concentration (converted)): 6 h
mean peak plasma concentration relative to immediate release (gastric resident system, pigs): comparable to that of the immediate release formulation
time to mean peak plasma concentration (gastric resident system, pigs): ≤ 6 h
average (sustained) plasma drug concentrations throughout the week following dosing (gastric resident system, pigs, n = 3): 200 to 800 ng/mL
duration of sustained drug concentrations (gastric resident system, single dose): up to 1 week
day at or after which no drug was detected in plasma [1]: 2 days
plasma drug concentrations on day 1 [1]: low but detectable
time to detectable plasma concentrations [1]: ≤ 15 min
average maximum plasma concentration (immediate release formulation, pigs, n = 3): ~ 500 ng/mL

From article PMC5760734, “Development of an oral once-weekly drug delivery system for HIV antiretroviral therapy” (Nature Communications, 2018)
